The values that follow come from the METLIN SMRT retention time set (Domingo-Almenara et al. 2019).

SMILES strings stand for the structures.

The nature of this data set: gradient 5% acetonitrile 3 min, to 50% in 2 min, to 85% in 15 min, held 3 min, 100 µL/min. As to conditions: column: Zorbax Extend-C18 2.1 x 50 mm; eluents: water / acetonitrile, 0.1% formic acid. The essentials: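 Retention times of pure standards were taken from adduct peaks that were selected by computer and manually inspected. Over 3 months, mixtures of ~100 molecules were run by HPLC–quadrupole time-of-flight mass spectrometry in positive and negative ionization mode. The Zorbax Extend-C18 column (2.1 × 50 mm, 1.8 μm) ran at 100 μL/min in water and acetonitrile, each containing 0.1% formic acid, with 40 μL dead volume and 900 μL dwell volume.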
In turn, `Cc1ccc(CN2CCN(C3CCN(C(=O)NCc4ccc(F)cc4)CC3)C(=O)C2=O)cc1` yielded an RP-LC retention time of 767 s.

`CN1C(=O)Cc2cc(C(=O)NC3CCCC3)ccc21` yielded an RP-LC retention time of 665 s.

As to `COc1ccc(NS(=O)(=O)c2ccc(-c3c(C)noc3C)cc2)cc1OC`, the RP-LC retention time amounted to 806 s.

With `CC(C)c1ccc(CNC(=O)c2ccc3c(c2)nc2n3CCN(C(C)C)C2=O)cc1`, the RP-LC retention time amounted to 823 s.

`C=CCN1C(=O)C(C)(C)COc2cc(NS(=O)(=O)C3CCCCC3)ccc21` registered an RP-LC retention time of 932 s.

For `CC(C)CN1C(=O)c2ccccc2C(C(=O)NCc2ccccn2)C1c1cccs1` (stereo not drawn), the RP-LC retention time came to 632 s.

`COCCNC(=O)C1(CCO)CCN(Cc2ccccc2)C1` (stereo not drawn) gave an RP-LC retention time of 560 s.

In the case of `CCn1cc(-c2ccc(C)cc2)cc1C(=O)N1CCC2(CC1)OCCO2`, the RP-LC retention time turned out to be 1000 s.

As for `Cc1cc(C)n(Cc2nc(-c3ccc(NC(=O)C4CCCO4)cc3)oc2C)n1` (stereo not drawn), the RP-LC retention time was 795 s.

Take `Cc1nc(OCC(=O)NC2CCCCC2)c2c(-c3ccccc3)noc2n1`: the RP-LC retention time came out at 1010 s.

For the compound `COc1ccccc1-c1nc2cnccn2c1NCCC(=O)NC1CCCCCC1`, the RP-LC retention time is 715 s.

In turn, `C=CCN(CC=C)S(=O)(=O)c1ccc(C(=O)N2CCc3ccccc3C2)cc1` yielded an RP-LC retention time of 940 s.

Compound `CCCc1cc(NCc2ccccn2)n2ncc(-c3ccccc3)c2n1` displayed an RP-LC retention time of 894 s.

For the compound `CN(CC(=O)NC1CCCC1)S(=O)(=O)c1c[nH]c(C(=O)N2CCCC2)c1`, the RP-LC retention time is 686 s.

As to `Cc1noc(C2CN(C(=O)CCC(C)C)CC23CCOCC3)n1` (stereo not drawn), the RP-LC retention time was found to be 678 s.

For the compound `Cc1sc(C)c(S(=O)(=O)Nc2cccc(Cl)c2)c1-c1cc(C(F)(F)F)on1`, the RP-LC retention time is 1190 s.

In turn, `CCOC(=O)C(C)Oc1cccc2c(=O)n(CC(=O)NCc3ccco3)ccc12` (stereo not drawn) returned an RP-LC retention time of 725 s.

`CCN1c2ccc(C)cc2C(=O)NC12CCN(C(=O)Cc1cccc(OC)c1)CC2` displayed an RP-LC retention time of 802 s.

`COc1ccc(-c2cc3n(n2)CCCN(S(=O)(=O)CCc2ccccc2)C3)cc1`: the RP-LC retention time came out at 983 s.

With `Cc1ccc(CNC(=O)CN2C(=O)CCCc3cc(S(=O)(=O)N4CCCC4)ccc32)cc1`, the RP-LC retention time amounted to 824 s.

The compound `COc1cc(CCC(=O)N2CC(c3noc(C4CCCN4C)n3)C2)on1` (stereo not drawn) gave an RP-LC retention time of 570 s.

In turn, `COc1ccccc1NC(=O)N1CCC2(CC1)NC(=O)c1cc(F)ccc1N2C` returned an RP-LC retention time of 756 s.

The compound `O=C(c1nnc(-c2ccc(S(=O)(=O)N3CCCCC3)cc2)o1)N1CCC(N2CCCCC2)CC1` gave an RP-LC retention time of 654 s.

`CCN1CCN(c2cc(C)c3cc(NC(=S)N4CCC(Cc5ccccc5)CC4)ccc3n2)CC1` yielded an RP-LC retention time of 699 s.

In turn, `COCC(=O)NC1CCC12CCN(C(=O)c1cccs1)CC2` (stereo not drawn) registered an RP-LC retention time of 669 s.

The compound `Brc1cccc(-c2nnc3sc(-c4ccncc4)nn23)c1` gave an RP-LC retention time of 838 s.

The compound `CCn1cc(S(=O)(=O)NCc2cc(F)cc(F)c2)c2cccnc21` returned an RP-LC retention time of 828 s.

`Cc1cc(C)cc(N2CCC(NC(=O)Nc3ccccc3)C2=O)c1` (stereo not drawn) showed an RP-LC retention time of 862 s.

Regarding `CC1=C(c2ccccc2)S(=O)(=O)N=C1N1CCC(NC(=O)c2ccoc2)CC1`, the RP-LC retention time was determined as 733 s.

Turning to `Cc1ccc(NC(=O)N2CCC(C(C)C(=O)Nc3ccccc3F)CC2)cc1` (stereo not drawn), the RP-LC retention time came out at 869 s.

For the compound `CCOC(=O)C1CCN(C(=O)c2nnc(-c3ccc(S(=O)(=O)N(C)C)cc3)o2)CC1`, the RP-LC retention time was found to be 829 s.

`CCCNC(=O)C1CCN(S(=O)(=O)c2cc(C(=O)N3CCC(C)CC3)n(C)c2)CC1` had an RP-LC retention time of 738 s.

As for `CCNC(=O)C1CCN(S(C)(=O)=O)c2cc(C)ccc2O1` (stereo not drawn), the RP-LC retention time worked out at 696 s.
